# Reference: PMC9767854, “Discovery and mechanism studies of a novel ATG4B inhibitor Ebselen by drug repurposing and its anti-colorectal cancer effects in mice” (Cell & Bioscience, 2022)
# Columns and labels:
# Caspase 2 = biological target: T1, Caspase 2 (Homo sapiens, UniProt P42575); assay: Caspase activity assay kit, CASP2; type: biochemical; conditions: 10 μM
# T1 construct: Beyotime (assay kit only) C1107
# Protocol: (§1) The enzyme activity of Caspase 1, Caspase 2, Caspase 3, Caspase 4, Caspase 6, Caspase 8 and Caspase 9 were determined via the activity assay kits (C1101, C1107, C1115, C1121, C1135, C1151 and C1157) from Beyotime (Shanghai, China). Then the experimental procedures were performed according to the manufacturer’s protocols.
# [1] = biological target: T2, endogenous ATG4B in HeLa cells (Homo sapiens, UniProt Q9Y4P1); assay: Endogenous ATG4B activity in cells by FRET assay; type: cell-based
# T2 construct: endogenous in cells; host or cells: HeLa
# Description: Supplementary file 13578_2022_944_MOESM1_ESM.docx: Additional file 1: Figure S1. Screening of ATG4B inhibitors based on the approved drugs library by FRET assay. […] (D) Candidate compound number and name correspondence table, and IC50 calculation of nine commercially available compounds for ATG4B by FRET assay. Figure S2. […] Figure S3. […] Figure S5. […] Figure S6.
# ATG4B = biological target: T3, ATG4B (Homo sapiens, UniProt Q9Y4P1); assay: Denaturing mass spectrometry of covalent binding; conditions: ATG4B 20 μM, compound 60 μM, 1 h at 37 °C; shift of 275 Da on 57,200 Da form
# T3 construct: 6xHis; made in house; host or cells: E. coli BL21(DE3)
# T3 sequence (Q9Y4P1 1-393): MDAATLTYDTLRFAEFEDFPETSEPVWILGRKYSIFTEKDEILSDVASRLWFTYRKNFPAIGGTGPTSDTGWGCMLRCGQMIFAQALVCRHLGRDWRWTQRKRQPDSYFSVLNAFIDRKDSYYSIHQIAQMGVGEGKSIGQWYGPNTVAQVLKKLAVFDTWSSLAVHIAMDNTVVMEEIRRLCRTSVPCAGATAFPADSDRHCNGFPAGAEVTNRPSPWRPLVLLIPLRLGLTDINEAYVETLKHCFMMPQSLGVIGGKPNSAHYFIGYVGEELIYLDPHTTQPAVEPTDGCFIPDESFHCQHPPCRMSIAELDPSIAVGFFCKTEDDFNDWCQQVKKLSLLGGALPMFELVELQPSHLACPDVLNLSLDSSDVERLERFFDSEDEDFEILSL
# Protocol: Analysis of covalent binding between protein and ligand was performed by denaturing mass spectrometry. ATG4B WT and related mutant (20 μM) were incubated with or without compound (60 μM) in phosphate buffer for 1 h at 37℃. Then the samples were desalted using ultrafiltration spin columns (0.5 ml, 10 kDa MWCO, PES, Sartorius) and buffer-exchanged into Milli-Q water. Subsequently, samples were diluted containing 0.1% v/v formic acid before being subjected to denaturing electrospray ionization mass spectrometry analysis (TOF, Waters, SYNAPT G2-Si). Spectrum data were processed with MassLynx (Waters).
# HCT116 [2] = assay: Immunofluorescence of endogenous LC3B dots; type: cell-based; conditions: Ebselen 10 μM, CQ 40 μM
# Protocol: (§2) Fig. 5 Ebselen suppresses autophagy flux via inhibition of ATG4B. A, B HeLa cells were treated with Torin 1 (2 μM) or CQ (40 μM) and detected by western blot. C, D SW620 cells were transduced with sgCon and sgATG4B lentiviruses, respectively. Then cells were treated with CQ (40 μM) and detected by western blot. E, F HCT116 were treated with Ebselen (5 and 10 μM) or CQ (40 μM) and subjected to western blot. G, H SW620 were treated with Ebselen (10 μM) or CQ (40 μM) and western blotting was carried out to detect the protein levels. I, J Immunofluorescence analysis of endogenous LC3B in HCT116 treated with Ebselen (10 μM) or CQ (40 μM). Dots numbers for LC3B were derived from counting at least 20 cells and 5 fields from three independent replicated experiments. Bar = 10 μm. K HCT116 cells were treated with 2 μM Torin 1 in the presence or absence of 10 μM Ebselen for 12 h, then the level ratio of long-lived proteins was measured by flow cytometry
# Immunofluorescence staining was carried out as described before. Respectively, cells seeded on glass-bottom 35-mm dishes (SORFA bio, 201,200) were washed with PBS and fixed for 20 min at room temperature with 4% paraformaldehyde after related administration. Subsequently, dishes were permeabilized with 0.3% Triton X-100 in PBS, and washed to be blocked in goat serum (Boster, AR1009) for 1 h before incubated with primary antibody overnight at 4℃. […]
# [3] = test system: Caspase 1, 2, 3, 4, 6, 8 and 9; assay: Caspase activity assay kits, caspase panel; type: biochemical; conditions: 10 μM; most caspases other than CASP2 and CASP3
# Protocol: as §1
# [4] = biological target: T4, ATG4B 2CS (C292/361S) mutant (Homo sapiens, UniProt Q9Y4P1, C292S/C361S); assay: FRET-based assay, ATG4B 2CS mutant; type: biochemical; conditions: Ebselen 0.5 μM, 15-90 min; read-out: inhibition rate against ATG4B 2CS
# T4 construct: 6xHis; made in house; host or cells: E. coli BL21(DE3)
# T4 sequence (Q9Y4P1 whole entry C292S/C361S): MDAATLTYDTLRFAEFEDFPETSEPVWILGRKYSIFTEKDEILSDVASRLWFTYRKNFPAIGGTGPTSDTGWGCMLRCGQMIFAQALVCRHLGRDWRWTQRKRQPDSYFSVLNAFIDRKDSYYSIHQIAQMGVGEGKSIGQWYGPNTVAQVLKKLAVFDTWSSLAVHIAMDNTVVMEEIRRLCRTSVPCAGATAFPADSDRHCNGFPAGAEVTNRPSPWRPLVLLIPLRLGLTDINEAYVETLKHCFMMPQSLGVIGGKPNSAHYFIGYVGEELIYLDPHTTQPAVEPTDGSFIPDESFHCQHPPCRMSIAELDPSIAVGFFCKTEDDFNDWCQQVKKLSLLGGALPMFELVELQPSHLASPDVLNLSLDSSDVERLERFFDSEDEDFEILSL
# Protocol: FRET-based assay for ATG4B or ATG4A activity was operated as previously described [5, 17]. Briefly, Recombinant protein ATG4B (0.75 μg/ml) or ATG4A (5 μg/ml) was incubated with compounds in reaction buffer (150 mM NaCl, 20 mM Tris–HCl, pH 8.0, 0.1% CHAPS, 1 mM EDTA) at 37 °C. After 30 min, substrate FRET-GATE-16 (50 μg/ml) was added to a final volume of 50 μl. The reaction was recorded via relative fluorescence intensity ratio of 527 nm/477 nm (RFU). The final inhibition rate of the compound for ATG4 was calculated as: (RFUcompound-RFUNC)/(RFUCON-RFUNC) × 100%; respectively, NC as negative control without inhibitor, CON as control without enzymes. For ATG4 activity determination in cells and tissues, cells or separated tumor samples were homogenized in a native lysis buffer (150 mM NaCl, 20 mM Tris–HCl, pH 7.6, 1% TritonX-100, 1 mM EDTA) without protease inhibitors. Then 5 μg total proteins from each sample was added into FRET assay system after clean supernatant proteins were separated. The reaction was recorded via relative fluorescence intensity ratio of 527 nm/477 nm. Finally, the inhibition rates of ATG4B were calculated with the vehicle or CM group as the negative control (ATG4 activity defined as 100%).
# Caspase 3 = biological target: T5, Caspase 3 (Homo sapiens, UniProt P42574); assay: Caspase activity assay kit, CASP3; type: biochemical; conditions: 10 μM
# T5 construct: Beyotime (assay kit only) C1115
# T5 sequence (P42574 29-175 limits assumed, species assumed): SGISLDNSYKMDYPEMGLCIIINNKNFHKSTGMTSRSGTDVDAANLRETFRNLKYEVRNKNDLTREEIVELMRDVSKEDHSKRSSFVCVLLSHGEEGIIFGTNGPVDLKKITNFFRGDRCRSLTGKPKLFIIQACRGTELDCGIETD
# T5 sequence (P42574 176-277 limits assumed, species assumed): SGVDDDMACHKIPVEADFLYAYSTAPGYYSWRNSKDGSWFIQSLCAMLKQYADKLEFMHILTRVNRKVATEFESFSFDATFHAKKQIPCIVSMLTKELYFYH
# Protocol: as §1
# HCT116 [5] = assay: Autophagy flux by LC3B-II western blot in HCT116; type: cell-based; conditions: Ebselen 5 and 10 μM with CQ 40 μM
# Protocol: as §2
# Immunoblotting assay was performed reportedly previously. Commonly, cells were lysed in ice-cold RIPA lysis buffer (Beyotime, P0013B) supplemented with Pierce™ protease inhibitor tablet (ThermoFisher Scientific, A32965). […]
# T1 sequence (P42575 170-325 limits assumed, species assumed): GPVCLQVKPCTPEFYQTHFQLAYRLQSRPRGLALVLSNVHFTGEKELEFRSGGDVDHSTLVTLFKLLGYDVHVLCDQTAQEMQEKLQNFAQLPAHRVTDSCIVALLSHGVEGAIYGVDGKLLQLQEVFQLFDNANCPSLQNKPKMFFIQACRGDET
# T1 sequence (P42575 348-452 limits assumed, species assumed): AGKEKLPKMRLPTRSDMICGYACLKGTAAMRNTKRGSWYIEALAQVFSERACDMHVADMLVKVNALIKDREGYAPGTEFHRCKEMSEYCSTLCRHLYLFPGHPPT
compound,measurement,setting,value
O=c1c2ccccc2[se]n1-c1ccccc1 [Ebselen],effect on CASP2 activity,Caspase 2,certain inhibition
same,inhibition of endogenous ATG4B in cells,[1],inhibited in a time- and dose-dependent manner
same,covalent binding to ATG4B,ATG4B,covalently binds to ATG4B
same,number of endogenous LC3B dots,HCT116 [2],decreased
same,effect on most caspase activities,[3],no significant effect
same,inhibition at 0.5 µM,[4],< 90%
same,effect on CASP3 activity,Caspase 3,certain inhibition
same,autophagic flux (LC3B-II),HCT116 [5],inhibition of autophagic flux
